Consider 17 molecules from US9353051B2, “Antiviral drugs for treatment or prevention of dengue infection” (Siga Technologies Inc., priority 2007, dated 2016).

Like-named read-outs stand apart in the source and are kept apart here.

Series [1] relates to Den-3. The series can be described thus: viral yield assay against Den-3. The series is classed as cell-based. To be noted: Dengue virus.
The test system of series [2] is Den-4. The series can be described thus: viral yield assay against Den-4. Format: cell-based. To be noted: Dengue virus.
The subject of series [3] is Den-1. Description: viral yield assay against Den-1. Format: cell-based. The settings on record: Dengue virus.
The subject of series [4] is Modoc. The series can be described thus: specificity: activity against Modoc. To be noted: Orthoflavivirus, in Mus musculus. Format: cell-based, murine flavivirus. As for the experimental part:
(§1) Select compounds were also tested for more broad spectrum activity against other members of the Flaviviridae family including Modoc, which is a murine flavivirus, as well as Bovine Viral Diarrhea Virus (BVDV), which is a Pestivirus. Since dengue virus is able to replicate in multiple cell lines and to ensure that the activity seen in vero cells is consistent, select compounds were also tested for their effective concentration in a viral yield assay against dengue-2 in C6/36 mosquito cells.

Series [5] relates to Dengue-2 (Strain New Guinea C). Description: viral yield assay against Dengue-2 in Vero cells. To be noted: Dengue virus; for EC90: read-out: EC90 Yield Den-2. Format: cell-based. The gist of the method: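 Vero cells infected with dengue-2 at MOI 0.1 were treated with compound (DMSO control) at 37° C., harvested 48 h post infection and titered on Vero cells.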
For series [6], the system named is Bovine Viral Diarrhea Virus (BVDV). Description: specificity: activity against BVDV. The series is classed as cell-based. As for the experimental part: as §1
Series [7] concerns dengue-2 in C6/36 mosquito cells. Description: viral yield assay against dengue-2 in C6/36 mosquito cells. Format: cell-based. The settings on record: Dengue virus, dengue-2, C6/36 mosquito cells, read-out: Specificity C6/36. As to the method:
as §1

Series [8] has as its system dengue. To be noted: mouse model; cited from earlier work.
Series [9] has as its system dengue. The settings on record: cited from earlier work.
The mark [10] stands for this setting: Vero cells, MOI 0.1, harvested 48 hours post infection, read-out: Activity (anti-dengue 2 viral activity, EC50).
[11] abbreviates: viral yield assay, Vero cells, read-out: EC50 Yield Den-2.
[12] abbreviates: Bovine viral diarrhea virus isolates and strains, read-out: Specificity BVDV.
The mark [13] stands for this setting: Bovine viral diarrhea virus isolates and strains; read-out: Specificity BVDV.

Turning to `CCN(CC)S(=O)(=O)c1ccc(NC(=O)Cn2cnc3ccccc3c2=O)cc1` [Compound 1, N-(4-Diethylsulfamoyl-phenyl)-2-(4-oxo-4H-quinazolin-3-yl)-acetamide], the EC50 in series [1] is 1 µM; in series [2], 1700 nM; in [3], 4.3 µM; in series [4] it was 1.2 µM; in series [5] (setting [10]), under 1 µM; in [5] (setting [11]) it was 0.3 µM. Moreover, the EC50 in series [6] (setting [12]) is over 50 µM; in series [7], 300 nM. Besides, the EC90 in series [1] came to 8.2 µM; in [2] it was 4.1 µM; in series [3], 10.7 µM; in [5] (viral yield assay, Vero cells) it was 5.2 µM.
As for `CCN(CC)S(=O)(=O)c1ccc(OC)c(NC(=O)C(C)C)c1` [Compound 2, N-(5-Diethylsulfamoyl-2-methoxy-phenyl)-isobutyramide], the EC50 is 5.5 µM in series [1]; 2100 nM in series [2]; 7.6 µM in series [3]; 6.2 µM in series [4]; under 1 µM in [5] (setting [10]); 0.3 µM in [5] (setting [11]). The EC50 was over 50 µM in series [6] (setting [12]) and 700 nM in series [7]. In addition, the EC90 in series [1] is 13.3 µM; in [2], 12.5 µM; in [3], 8.9 µM; in [5] (viral yield assay, Vero cells), 4.1 µM.
Take `CCN(CC)S(=O)(=O)c1ccc(NC(=O)Cn2nnc3ccccc3c2=O)cc1` [Compound 3, N-(4-Diethylsulfamoyl-phenyl)-2-(4-oxo-4H-benzo[d][1,2,3]triazin-3-yl)-acetamide]: the EC50 was 1 µM in [1]; 2300 nM in [2]; 1.3 µM in [3]; 3.1 µM in series [4]; 1 to 10 µM in [5] (setting [10]); 4 µM in series [5] (setting [11]). The EC50 in series [6] (setting [12]) is over 50 µM. Also, the concentration for an effect of 90% (EC90) in [1] was determined as 12.1 µM; in series [2] it was 10 µM; in series [3], 5.1 µM; in [5] (viral yield assay, Vero cells), 10 µM.
Take `CCN(CC)S(=O)(=O)c1ccc(NC(=O)Cn2cnc3c2c(=O)n(C)c(=O)n3C)cc1` [Compound 4, N-(4-Diethylsulfamoyl-phenyl)-2-(1,3-dimethyl-2,6-dioxo-1,2,3,6-tetrahydro-purin-7-yl)-acetamide]: the EC50 in series [1] is 13.5 µM; in series [2], 4300 nM; in series [4], over 25 µM; in series [5] (setting [10]) it was 1 to 10 µM; in [5] (setting [11]) it was 7.8 µM; in series [6] (setting [13]), over 50 µM. Also, the EC90 in series [1] was 22.6 µM; in series [2], 22.7 µM; in [5] (viral yield assay, Vero cells) it was 8.9 µM.
As for `CC(C)N(C)S(=O)(=O)c1ccc(NC(=O)Cn2cnc3ccc(Cl)cc3c2=O)cc1` [Compound 6, 2-(6-Chloro-4-oxo-4H-quinazolin-3-yl)-N-[4-(isopropyl-methyl-sulfamoyl)-phenyl]-acetamide], the EC50 in series [5] (setting [10]) is 1 to 10 µM; in [5] (setting [11]), 1.8 µM; in series [6] (setting [13]), 64 µM. In addition, the 90% effect concentration (EC90) in series [5] (viral yield assay, Vero cells) turned out to be 43.2 µM.
As to `CC(C)N(C)S(=O)(=O)c1ccc(NC(=O)Cn2cnc3cc(F)ccc3c2=O)cc1` [Compound 7, 2-(7-Fluoro-4-oxo-4H-quinazolin-3-yl)-N-[4-(isopropyl-methyl-sulfamoyl)-phenyl]-acetamide], the EC50 is 1 to 10 µM in series [5] (setting [10]), 4.6 µM in series [5] (setting [11]) and over 50 µM in series [6] (setting [13]). Besides, the EC90 in series [5] (viral yield assay, Vero cells) was over 50 µM.
For `CCN(CC)S(=O)(=O)c1ccc(NC(=O)Cn2[nH]c(=O)c3ccccc3c2=O)cc1` [Compound 8, N-(4-Diethylsulfamoyl-phenyl)-2-(1,4-dioxo-3,4-dihydro-1H-phthalazin-2-yl)-acetamide], the EC50 in series [5] (setting [10]) was 1 to 10 µM; in series [5] (setting [11]) it was 2.8 µM; in series [6] (setting [13]), over 50 µM. Moreover, the EC90 in [5] (viral yield assay, Vero cells) amounted to 25.6 µM.
Consider `CCN(CC)S(=O)(=O)c1ccc(NC(=O)CN2C(=O)c3cccc4cccc(c34)C2=O)cc1` [Compound 9, N-(4-Diethylsulfamoyl-phenyl)-2-(1,3-dioxo-1H,3H-benzo[de]isoquinolin-2-yl)-acetamide], for which the EC50 in series [5] (setting [10]) was 1 to 10 µM; in series [5] (setting [11]) it was 1.3 µM; in series [6] (setting [13]), over 50 µM. For the same molecule, in series [5] (viral yield assay, Vero cells), the concentration for an effect of 90% (EC90) is 7.3 µM.
On to `CCN(CC)S(=O)(=O)c1ccc(C)c(NC(=O)Cn2cnc3cc([N+](=O)[O-])ccc3c2=O)c1` [Compound 12, N-(5-Diethylsulfamoyl-2-methyl-phenyl)-2-(7-nitro-4-oxo-4H-quinazolin-3-yl)-acetamide], for which the EC50 was 2.9 µM in series [1]; 5200 nM in series [2]; over 25 µM in series [3]; over 25 µM in series [4]; 1 to 10 µM in series [5] (Vero, 48 h, read-out: Activity (anti-dengue 2 viral activity, EC50)); 11.1 µM in [5] (setting [11]). For the same molecule, in [6] (setting [12]), the EC50 is over 50 µM. For the same molecule, the 90% effect concentration (EC90) in series [1] was over 25 µM; in [2] it was 14.6 µM; in series [3] it was over 25 µM; in series [5] (viral yield assay, Vero cells) it was over 25 µM.
On to `CCN(CC)S(=O)(=O)c1ccc(OC)c(NC(=O)Cn2cnc3c2c(=O)n(C)c(=O)n3C)c1` [Compound 13, N-(5-Diethylsulfamoyl-2-methoxy-phenyl)-2-(1,3-dimethyl-2,6-dioxo-1,2,3,6-tetrahydro-purin-7-yl)-acetamide], for which the EC50 in series [1] is 4.1 µM; in [2], 1900 nM; in series [3] it was 7.1 µM; in series [4] it was over 25 µM; in series [5] (setting [10]), 1 to 10 µM; in series [5] (setting [11]), 2.4 µM. The EC50 in series [6] (setting [12]) stood at 47.7 µM; in series [7], 2100 nM. For the same molecule, the EC90 in series [1] came to 9.4 µM; in series [2], 9.2 µM; in series [3], 8.5 µM; in series [5] (viral yield assay, Vero cells), 10.3 µM.
Regarding `CCCC(=O)Nc1cc(S(=O)(=O)N(CC)CC)ccc1OC` [Compound 14, N-(5-Diethylsulfamoyl-2-methoxy-phenyl)-butyramide], the EC50 was 4.2 µM in series [1]; 4800 nM in series [2]; over 25 µM in series [3]; over 25 µM in series [4]; 1 to 10 µM in series [5] (setting [10]); 3.6 µM in [5] (setting [11]). The EC50 in series [6] (setting [13]) was over 50 µM. Also, the EC90 in series [1] was 14.9 µM; in series [2], 11.1 µM; in series [3], over 25 µM; in series [5] (viral yield assay, Vero cells), 27.5 µM.
With `CCN(CC)S(=O)(=O)c1ccc(OC)c(NC(=O)CC(C)C)c1` [Compound 15, N-(5-Diethylsulfamoyl-2-methoxy-phenyl)-3-methyl-butyramide], the EC50 in [2] is 1200 nM; in [4], 10.1 µM; in [5] (setting [10]), 1 to 10 µM; in [5] (setting [11]), 2.4 µM; in series [6] (setting [12]) it was over 50 µM. The EC90 in series [2] was 37.2 µM; in series [5] (viral yield assay, Vero cells), over 100 µM.
For the molecule `CCN(CC)S(=O)(=O)c1ccc(OC)c(NC(=O)Cc2ccccc2)c1` [Compound 16, N-(5-Diethylsulfamoyl-2-methoxy-phenyl)-2-phenyl-acetamide], the EC50 in series [2] was 2100 nM; in series [4], 3.6 µM; in series [5] (setting [10]), 1 to 10 µM; in series [5] (setting [11]), 5.8 µM; in series [6] (setting [12]), over 50 µM. Further, the EC90 in series [2] worked out at 6.4 µM; in [5] (viral yield assay, Vero cells) it was 10.3 µM.
`CCCCC(=O)Nc1cc(S(=O)(=O)N(CC)CC)ccc1OC` [Compound 21, Pentanoic acid (5-diethylsulfamoyl-2-methoxy-phenyl)-amide]: the EC50 in [2] is 8200 nM; in [4], 6 µM; in [5] (setting [10]), 10 to 25 µM; in series [5] (setting [11]), 14.2 µM; in [6] (setting [12]), over 50 µM. Moreover, the EC90 in series [2] is 12 µM; in series [5] (viral yield assay, Vero cells), 24.1 µM.
Turning to `O=C(Cn1cnc2ccc(Cl)cc2c1=O)Nc1ccc(S(=O)(=O)N2CCCCCC2)cc1` [Compound 138, N-[4-(Azepane-1-sulfonyl)-phenyl]-2-(6-chloro-4-oxo-4H-quinazolin-3-yl)-acetamide], the EC50 in [5] (setting [10]) was over 25 µM.
The same measure, in the same setting: to `O=C(Cn1cnc2cc(F)ccc2c1=O)Nc1ccc(S(=O)(=O)N2CCCCCC2)cc1` [Compound 139, N-[4-(Azepane-1-sulfonyl)-phenyl]-2-(7-fluoro-4-oxo-4H-quinazolin-3-yl)-acetamide] belongs over 25 µM.
Regarding `NC(=O)c1ncn([C@@H]2O[C@H](CO)[C@@H](O)[C@H]2O)n1` [ribavirin], the protection against dengue result in [8] and in [9] (rhesus monkey model) was “did not show protection” each time. Moreover, in [9] (animal models of dengue (mouse or rhesus monkey, not specified)), the adverse effects induced entry was “induced anemia and thrombocytosis”.

What is called EC90 is the concentration needed for an effect of 90%.
